Data on 14 molecules can be found in US20130116263A1, “PAK INHIBITORS FOR THE TREATMENT OF CELL PROLIFERATIVE DISORDERS” (AFRAXIS, INC., priority 2011, published 2013).

Assay type in all cases: biochemical
For test [1], the target named is PAK2 (PAK65) (Homo sapiens, UniProt Q13177). Kind of test: In vitro PAK inhibition assay (Z'-LYTE, SelectScreen), PAK2. The conditions noted are these: read-out: PAK2 IC50. In outline:
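Z'-LYTE FRET readout using Ser/Thr 20 peptide (2 μM) with 0.29–6 ng PAK2 in 50 mM HEPES pH 7.5, 0.01% BRIJ-35, 10 mM MgCl2, 1 mM EGTA, 1% DMSO. Reaction and development each ran 60 min at room temperature.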

Test [2] has as its target PAK1 (Homo sapiens, UniProt Q13153). Description: In vitro PAK inhibition assay (Z'-LYTE, SelectScreen), PAK1. The conditions noted are these: read-out: PAK1 IC50. In outline: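 The PAK1 reaction on Ser/Thr 19 peptide runs 60 min at room temperature in 50 mM HEPES pH 7.5 with 10 mM MgCl2, 1 mM EGTA, 0.01% BRIJ-35; Z'-LYTE fluorescence read after 60 min development.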
The target in test [3] is PAK4 (Homo sapiens, UniProt O96013). Description: In vitro PAK inhibition assay (Z'-LYTE, SelectScreen), PAK4. In outline: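 Z'-LYTE FRET assay with 0.1-0.75 ng PAK-4 and 2 μM Ser/Thr 20 peptide in 50 mM HEPES pH 7.5, 10 mM MgCl2, 1 mM EGTA, 0.01% BRIJ-35, 1% DMSO; ATP near apparent Km. 1 h kinase reaction at room temperature, then 1 h development; IC50 from 10-point 3-fold titrations fitted to a sigmoidal dose-response.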

For test [4], the target named is PAK3 (Homo sapiens, UniProt O75914). Description: In vitro PAK inhibition assay (Z'-LYTE, SelectScreen), PAK3. Particulars: read-out: PAK3 IC50. A digest of the protocol:
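Z'-LYTE FRET format: PAK3 with Ser/Thr 20 peptide in 50 mM HEPES pH 7.5, 0.01% BRIJ-35, 10 mM MgCl2, 1 mM EGTA, 1% DMSO final. Kinase reaction 60 min at room temperature, then 60 min development and fluorescence read.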

PAK4, sequence (O96013 whole entry): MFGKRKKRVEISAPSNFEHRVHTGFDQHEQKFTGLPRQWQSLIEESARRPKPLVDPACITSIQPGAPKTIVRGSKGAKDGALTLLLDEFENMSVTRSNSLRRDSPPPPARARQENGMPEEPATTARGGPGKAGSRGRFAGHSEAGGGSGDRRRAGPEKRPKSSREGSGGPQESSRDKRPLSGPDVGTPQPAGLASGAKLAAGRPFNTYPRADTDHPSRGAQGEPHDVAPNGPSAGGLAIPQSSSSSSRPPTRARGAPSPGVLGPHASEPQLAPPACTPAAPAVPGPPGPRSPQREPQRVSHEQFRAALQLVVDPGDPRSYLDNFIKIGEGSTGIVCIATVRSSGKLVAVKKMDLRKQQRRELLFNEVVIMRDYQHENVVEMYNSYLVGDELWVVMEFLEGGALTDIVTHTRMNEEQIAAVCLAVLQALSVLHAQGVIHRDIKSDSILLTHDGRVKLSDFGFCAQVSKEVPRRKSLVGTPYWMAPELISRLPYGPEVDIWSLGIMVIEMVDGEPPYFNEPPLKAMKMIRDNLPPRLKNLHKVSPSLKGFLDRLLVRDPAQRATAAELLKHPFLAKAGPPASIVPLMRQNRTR
PAK3, sequence (O75914 1-544 isoform O75914-2): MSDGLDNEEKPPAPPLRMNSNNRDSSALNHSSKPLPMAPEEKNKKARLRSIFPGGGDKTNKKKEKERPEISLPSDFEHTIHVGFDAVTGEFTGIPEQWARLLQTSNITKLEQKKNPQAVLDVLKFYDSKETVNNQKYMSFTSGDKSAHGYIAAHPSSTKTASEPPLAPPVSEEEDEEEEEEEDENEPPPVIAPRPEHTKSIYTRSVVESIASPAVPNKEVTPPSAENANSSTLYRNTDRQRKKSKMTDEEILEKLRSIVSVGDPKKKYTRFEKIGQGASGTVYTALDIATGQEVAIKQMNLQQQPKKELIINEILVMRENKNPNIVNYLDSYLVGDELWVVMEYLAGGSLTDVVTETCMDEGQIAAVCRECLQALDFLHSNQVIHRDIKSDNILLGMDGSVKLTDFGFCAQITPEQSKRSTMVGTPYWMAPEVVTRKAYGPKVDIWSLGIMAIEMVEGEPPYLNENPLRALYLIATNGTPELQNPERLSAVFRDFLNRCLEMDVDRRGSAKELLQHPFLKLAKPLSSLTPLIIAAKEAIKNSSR
PAK2 (PAK65), sequence (Q13177 whole entry): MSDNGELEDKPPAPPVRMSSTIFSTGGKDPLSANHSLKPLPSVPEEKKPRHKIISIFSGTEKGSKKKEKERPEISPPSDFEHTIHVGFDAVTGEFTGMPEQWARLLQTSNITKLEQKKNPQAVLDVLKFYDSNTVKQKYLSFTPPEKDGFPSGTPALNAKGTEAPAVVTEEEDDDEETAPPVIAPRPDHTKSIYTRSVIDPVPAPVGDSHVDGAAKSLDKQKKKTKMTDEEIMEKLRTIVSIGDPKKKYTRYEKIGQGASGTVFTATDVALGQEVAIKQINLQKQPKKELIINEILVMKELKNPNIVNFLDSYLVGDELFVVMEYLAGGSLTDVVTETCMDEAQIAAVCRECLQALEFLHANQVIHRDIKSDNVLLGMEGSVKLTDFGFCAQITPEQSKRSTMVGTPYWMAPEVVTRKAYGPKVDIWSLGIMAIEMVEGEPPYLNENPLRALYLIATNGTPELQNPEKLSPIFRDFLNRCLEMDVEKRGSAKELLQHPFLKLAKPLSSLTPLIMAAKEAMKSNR
PAK1, sequence (Q13153 whole entry): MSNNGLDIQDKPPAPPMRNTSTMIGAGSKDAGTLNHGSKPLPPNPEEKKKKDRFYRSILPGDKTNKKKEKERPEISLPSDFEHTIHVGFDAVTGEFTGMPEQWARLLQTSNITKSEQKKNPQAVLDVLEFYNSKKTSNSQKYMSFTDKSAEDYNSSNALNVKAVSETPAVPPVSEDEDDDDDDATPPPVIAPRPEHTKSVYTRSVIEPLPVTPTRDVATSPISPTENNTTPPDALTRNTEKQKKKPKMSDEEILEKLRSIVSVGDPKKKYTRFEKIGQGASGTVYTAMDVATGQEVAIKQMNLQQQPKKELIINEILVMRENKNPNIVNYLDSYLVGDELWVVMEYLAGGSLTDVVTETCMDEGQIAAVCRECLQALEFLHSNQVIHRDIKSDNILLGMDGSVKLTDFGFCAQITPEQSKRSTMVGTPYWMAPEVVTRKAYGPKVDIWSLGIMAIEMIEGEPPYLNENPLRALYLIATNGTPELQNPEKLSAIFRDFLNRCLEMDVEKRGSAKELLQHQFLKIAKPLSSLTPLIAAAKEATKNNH

Consider `CCn1c(=O)c(-c2ccc(-c3cncc(C)n3)cc2Cl)cc2cnc(N[C@H]3CCCNC3=O)nc21` [Example 69], for which the IC50 in test [1], in test [2], in test [3] and in test [4] was greater than 5000 nM throughout.
As for `CCn1c(=O)c(-c2ccc(-c3nccnc3C)cc2Cl)cc2cnc(NC3CCNC3)nc21` (centres unmarked) [Example 83], the IC50 in test [1] was 50 to 500 nM; in test [2], 50 to 500 nM; in test [3], greater than 5000 nM; in test [4], 500 to 5000 nM.
On to `CCn1c(=O)c(-c2ccc(-c3cncc(C)n3)cc2Cl)cc2cnc(N[C@H]3CC[C@H](CN)CC3)nc21` [Example 87], for which the IC50 in test [1] is less than 50 nM; in test [2] it was less than 50 nM; in test [3], greater than 5000 nM; in test [4], less than 50 nM.
In the case of `Cc1cnc(-c2ccc(-c3cc4cnc(NC5CCOCC5)nc4n(Cc4ccccc4C(F)(F)F)c3=O)c(Cl)c2)s1` [Example 26], the IC50 in test [1] was 50 to 500 nM; in test [2], 50 to 500 nM; in test [3] it was greater than 5000 nM; in test [4], 50 to 500 nM.
In the case of `CCn1c(=O)c(-c2ccc(-c3nccnc3C)cc2Cl)cc2cnc(NC3CCCNC3)nc21` (centres unmarked) [Example 82], the 50% inhibitory concentration (IC50) was 50 to 500 nM in test [1], 50 to 500 nM in test [2], greater than 5000 nM in test [3] and 500 to 5000 nM in test [4].
On to `CCn1c(=O)c(-c2ccc(-c3cncc(C)n3)cc2Cl)cc2cnc(NC3CNC(=O)C3)nc21` (centres unmarked) [Example 66], for which the IC50 was less than 50 nM in test [1], 50 to 500 nM in test [2], greater than 5000 nM in test [3] and 50 to 500 nM in test [4].
`CCn1c(=O)c(-c2ccc(-c3nccnc3C)cc2Cl)cc2cnc(NC3CCCOC3)nc21` (centres unmarked) [Example 17]: the half-inhibitory concentration (IC50) in test [1] was 50 to 500 nM; in test [2], 50 to 500 nM; in test [3], greater than 5000 nM; in test [4], 50 to 500 nM.
As for `CCn1c(=O)c(-c2ccc(-c3noc(C)n3)cc2Cl)cc2cnc(N[C@H]3CC[C@H](N)CC3)nc21` [Example 94], the 50% inhibitory concentration (IC50) was 50 to 500 nM in test [1], 50 to 500 nM in test [2], greater than 5000 nM in test [3] and 50 to 500 nM in test [4].
As for `Cc1cncc(-c2ccc(-c3cc4cnc(NC(C)C)nc4n([C@H]4CC[C@H](N)CC4)c3=O)c(Cl)c2)n1` [Example 116], the IC50 in test [1] is less than 50 nM; in test [2] it was less than 50 nM; in test [3], 500 to 5000 nM; in test [4], less than 50 nM.
For `CCn1c(=O)c(-c2ccc(-c3nccnc3C)cc2Cl)cc2cnc(NC3CCN(C(C)=O)CC3)nc21` [Example 80], the IC50 is 50 to 500 nM in test [1], 500 to 5000 nM in test [2], greater than 5000 nM in test [3] and 500 to 5000 nM in test [4].
For the molecule `CCn1c(=O)c(-c2ccc(-c3cccnc3C)cc2Cl)cc2cnc(NC3CCOCC3)nc21` [Example 45], the 50% inhibitory concentration (IC50) in test [1] is 500 to 5000 nM; in test [2], 50 to 500 nM; in test [3] it was greater than 5000 nM; in test [4], 500 to 5000 nM.
Regarding “6-(2-chloro-4-(5-methyl-1,2,4-oxadiazol-3-yl)phenyl)-2-(4-(1-methylpiperidin-4-yl)phenylamino)pyrido[2,3-d]pyrimidin-7(8H)-one [Example 95]”, the 50% inhibitory concentration (IC50) was 50 to 500 nM in test [1], 50 to 500 nM in test [2], greater than 5000 nM in test [3] and 500 to 5000 nM in test [4].
For `Cc1cncc(-c2ccc(-c3cc4cnc(NC5CCOCC5)nc4n(C4CCCC4)c3=O)c(Cl)c2)n1` [Example 89], the half-maximal inhibitory concentration (IC50) was 50 to 500 nM in test [1], 50 to 500 nM in test [2], greater than 5000 nM in test [3] and 50 to 500 nM in test [4].
Regarding `CCn1c(=O)c(-c2ccc(-c3cncc(C)n3)cc2Cl)cc2cnc(N[C@H]3CC[C@H](CN(C)C)CC3)nc21` [Example 84, 6-(2-chloro-4-(6-methylpyrazin-2-yl)phenyl)-2-((trans-1,4)-4-((dimethylamino)methyl)cyclohexylamino)-8-ethylpyrido[2,3-d]pyrimidin-7(8H)-one], the IC50 in test [1] is less than 50 nM; in test [2], less than 50 nM; in test [3], greater than 5000 nM; in test [4], less than 50 nM.
